Values of other authors, collected in PMC12332767 (RSC Chemical Biology, 2025).

Insoluble in chloroform (HI alone): 98.5% | Soluble in chloroform in interaction with PC (HI in interaction with PC): 74%
Substance: heparin [HI]
